Read-outs that look alike come from different tables or passages of the source.
What was measured:
[1] = tested on: L1210 cell line (mouse leukemia); assay: Cytotoxic activity, L1210 cell line; format: cell-based
Experimental: (§1) The O-amino phenol derivatives bearing the N—O prodrug linkages and the various N-acyl substituents were assayed for cytotoxic activity alongside the parent drugs CBI-TMI (2) (Boger, D. L.; Yun, W. J. Am. Chem. Soc. 1994, 116, 7996) and mitomycin C (Boger, D. L.; et al. Bioorg. Med. Chem. Lett. 1991, 1, 115; Boger, D. L.; et al. Bioorg. Med. Chem. 1995, 3, 1429) as well as the two control standards 9 and 10 incapable of free phenol release. Three cell lines were examined including a standard L1210 cell line (mouse leukemia) as well as the mitomycin-sensitive (H460, expresses high levels of DT-Diaphorase) and resistant (H596, lacks DT-Diaphorase) non small cell lung cancer (NSCLC) cell lines, with results shown in the Table below.

[2] = tested on: H460 (mitomycin-sensitive, expresses high levels of DT-Diaphorase) non small cell lung cancer (NSCLC) cell line; assay: Cytotoxic activity, H460 cell line; format: cell-based; details: for IC50: Homo sapiens, NCI-H460, read-out: IC50 (nM) H460
Experimental: as §1

[3] = tested on: H596 (mitomycin-resistant, lacks DT-Diaphorase) non small cell lung cancer (NSCLC) cell line; assay: Cytotoxic activity, H596 cell line; format: cell-based; details: Homo sapiens, NCI-H596, read-out: IC50 (nM) H596
Experimental: as §1

w794 duplex DNA = assay: DNA alkylation selectivity and efficiency (thermally-induced strand cleavage); format: biochemical
Experimental: FIG. 1 illustrates the results of an electrophoresis gel with 8% denaturing PAGE and autoradiography. Thermally-induced strand cleavage of w794 DNA; DNA-agent incubation at 4° C. for 18 hours, removal of unbound agent by EtOH precipitation, and 30 minutes of thermolysis (100° C.) followed by 8% denaturing PAGE and autoradiography. Lane 1, control DNA; lanes 2-5, Sanger G, C, A, and T sequencing reactions; lanes 6-8, 2 (1×10^−4 to 1×10^−6); lanes 9-11, 10 (1×10^−1 to 1×10^−3); lanes 12-14, 4 (1×10^−1 to 1×10^−3), lanes 15-17, 9 (1×10^−1 to 1×10^−3).
The DNA alkylation properties of 4 were examined alongside the parent drug CBI-TMI (2), and the two control standards 9 and 10 (incapable of spirocyclization) within w794 duplex DNA (Boger, D. L.; et al. Tetrahedron 1991, 47, 2661) for which results for an extensive series of duocarmycin analogues have been reported. The sites of DNA alkylation and its efficiency were directly assessed by thermally-induced singly 5′ end-labeled duplex DNA strand cleavage following incubation with the agents ([…], natural enantiomers examined).
The DNA alkylation reactions were performed by treatment of 4.5 μL of singly ^32P 5′-end-labeled double-stranded w794 DNA (Boger, D. L.; et al. Tetrahedron 1991, 47, 2661) in TE buffer (10 mM Tris, 1 mM EDTA, pH 7.6) with 0.5 μL of agent in EtOH (at the specified concentration). […] Unbound agent was removed by EtOH precipitation of DNA (0.5 μL of 3.0 M sodium acetate and 12.5 μL of cold absolute EtOH) and the solutions were stored at −78° C. for 1 hour or longer. The DNA was pelleted by centrifugation at 4° C. (13000 rpm, 25 minutes), dried in a Savant Speed Vac concentrator, and resuspended in 5 μL of TE buffer (pH 7.6). Thermal depurination (3×10 minutes at 100° C.) was performed and then 2.5 μL of formamide dye solution was added to the cooled samples. Thermally denatured samples were assayed by gel electrophoresis [8% denaturing gel with 8 M urea in TBE buffer (89 mM Tris-borate, 2 mM EDTA)] followed by autoradiography of the dried gel using Kodak BIOMAX XAR film and a Picker Spectra™ intensifying screen.

[4] = Chemical stability and reactivity of the N-acyl O-amino phenol derivatives; format: physicochemical
[5] = Stability in pH 7.0 phosphate buffer; format: physicochemical; details: HPLC, UV; monitored 72 hours
[6] = Stability in human plasma; format: in vitro ADME; details: 50 μg/100 μL, 10% DMSO, release of free drug 2
[7] = Mus musculus, L1210, read-out: IC50 (nM) L1210, natural enantiomer series, CBI-TMI derivatives

Compound | IC50 [1, 7] | IC50 [2] | IC50 [3] | DNA alkylation under forcing conditions (w794 duplex DNA; 37° C., 18 hours, data not shown) | observable DNA alkylation (w794 duplex DNA; w794 DNA, 4° C., 18 hours) | fold less potent than 2 ([1]; against L1210, natural enantiomer) | potency compared with 2 ([2]; against H460/H596) | DNA alkylation efficiency, reduction relative to CBI-TMI (2) (w794 duplex DNA; w794 DNA, 4° C., 18 hours, natural enantiomers) | DNA alkylation sequence selectivity (w794 duplex DNA; w794 DNA, compared with CBI-TMI (2)) | stability to treatment with BnSH in MeOH with NaHCO3 ([4]; BnSH in MeOH, NaHCO3, 2 hours, 23° C.) | stability to treatment with BnSH ([4]; BnSH in THF (2-72 hours, 23° C.) or MeOH (2-72 hours, 23° C.)) | stability to treatment with BnSH in THF with insoluble NaHCO3 ([4]; BnSH in THF, insoluble NaHCO3, 2 hours, 23° C.) | stability in MeOH ([4]; MeOH) | stability to NaHCO3 or Na2CO3 in MeOH ([4]; NaHCO3 or Na2CO3 in MeOH, 2 hours, 23° C.) | stability to acidic conditions ([4]; TFA-CH2Cl2, 4 N HCl-EtOAc) | stability on long term storage ([4]; storage) | stability in pH 7.0 phosphate buffer [5] | half-life [6] | IC50 ([1]; read-out: IC50 (nM) L1210, natural enantiomer series, CBI-TMI derivatives) | DNA alkylation relative to that of 2 (w794 duplex DNA; w794 DNA, natural enantiomers)
COc1cc2cc(C(=O)N3C[C@@H](CCl)c4c3ccc3ccccc43)[nH]c2c(OC)c1OC [Compound 9] | > 100 nM | > 100 nM | > 100 nM | no appreciable DNA alkylation | failed to exhibit significant observable DNA alkylation |  |  |  |  |  |  |  |  |  |  |  |  |  |  | 
COc1cc2cc(C(=O)N3C[C@@H](CCl)c4c3cc(ONC(=O)OC(C)(C)C)c3ccccc43)[nH]c2c(OC)c1OC [Compound 4] | 0.5 nM | 1 nM | 6 nM |  |  | 10 fold | essentially equipotent | 1,000-10,000 fold | identical sequence selectivity | cleaved to release 2 | stable | stable | stable | 2 was released slowly | surprisingly robust to acidic conditions | withstanding even long term storage effectively | no significant cleavage of the prodrug was observed | 3 h |  | 
COc1cc2cc(C(=O)N3C[C@@H](CCl)c4c3cc(OC)c3ccccc43)[nH]c2c(OC)c1OC [Compound 10] | > 100 nM | > 100 nM | > 100 nM |  | failed to exhibit significant observable DNA alkylation |  |  |  |  |  |  |  |  |  |  |  |  |  | 50 nM | < 0.01%

From patent publication US8377981B2, “CBI derivatives subject to reductive activation” (The Scripps Research Institute, priority 2007, dated 2013)
